Among the data in ChEMBL document CHEMBL1135337, “Synthesis and DNA binding properties of saturated distamycin analogues” (Bioorg Med Chem Lett, 2002) are C50 values, retold here.

The assay has as its system Nucleic Acid. Kind of assay: Concentration required for 50% displacement of ethidium bromide from p[dA]p[dT] in a fluorescence intercalator displacement (FID) assay. The class given is nucleic-acid assay.
Regarding `N=C(N)CCNC(=O)[C@H]1C[C@H](NC(=O)[C@H]2C[C@H](NC(=O)C3C[C@H](NC=O)CN3C(=O)OCc3ccccc3)CN2C(=O)OCc2ccccc2)CN1C(=O)OCc1ccccc1` (some centres undefined), the C50 stood at 4.7 µM. `N=C(N)CCNC(=O)[C@H]1C[C@H](NC(=O)[C@H]2C[C@H](NC(=O)[C@H]3C[C@H](NC=O)CO3)CO2)CO1` returned a C50 of 5.4 µM. `N=C(N)CCNC(=O)[C@@H]1C[C@@H](NC(=O)[C@@H]2C[C@@H](NC(=O)[C@@H]3C[C@@H](NC=O)CN3)CN2)CN1` registered a C50 of 8.55 µM.

`N=C(N)CCNC(=O)[C@H]1C[C@H](NC(=O)[C@H]2C[C@H](NC(=O)[C@H]3C[C@H](NC=O)CN3)CN2)CN1` gave a C50 of 6.37 µM.

On to `CN1C[C@@H](NC(=O)[C@H]2C[C@H](NC(=O)[C@H]3C[C@H](NC=O)CN3C)CN2C)C[C@@H]1C(=O)NCCC(=N)N`, for which the C50 was determined as 6.7 µM.

Compound `N=C(N)CCNC(=O)[C@@H]1C[C@@H](NC(=O)[C@@H]2C[C@@H](NC(=O)[C@@H]3C[C@@H](NC=O)CN3C(=O)OCc3ccccc3)CN2C(=O)OCc2ccccc2)CN1C(=O)OCc1ccccc1` returned a C50 of 5.1 µM. The compound `N=C(N)CCNC(=O)[C@@H]1C[C@@H](NC(=O)[C@@H]2C[C@@H](NC(=O)[C@@H]3C[C@@H](NC=O)CO3)CO2)CO1` displayed a C50 of 5.5 µM. In the case of `N=C(N)CCNC(=O)[C@@H]1CC[C@@H](NC(=O)[C@@H]2CC[C@@H](NC(=O)[C@@H]3CC[C@@H](NC=O)C3)C2)C1` it was 7.91 µM; in that of `Cn1cc(NC(=O)c2cc(NC(=O)c3cc(NC=O)cn3C)cn2C)cc1C(=O)NCCC(=N)N`, 0.46 µM.
